Experimental data: US11077100B2, “Tetrahydroquinoline derivatives as P2X7 receptor antagonists” (RaQualia Pharma Inc., priority 2017, dated 2021)

Molecular target: human P2X7 (Homo sapiens (Human), UniProt Q99572)
Experiment: Human P2X7 functional assay (Ca2+ influx, Fluo-4, FDSS)
Type: cell-based
Details: antagonistic activity with respect to the human P2X7 receptor; BzATP final concentration 80 microM
Experimental: The ability of the 5,6,7,8-tetrahydroquinoline and 6,7-dihydro-5H-cyclopenta[b]pyridine derivatives of the formula (I) to inhibit the P2X7 channel was measured by Ca^2+ influx assay and electrophysiology assay described below.
Human P2X7 Functional Assay
The functional activity of compounds was determined by measuring changes in intracellular calcium concentration using a Ca^2+-sensitive fluorescent dye, Fluo-4 (Molecular Probes). The changes in fluorescent signal were monitored by the cell imaging technology by Hamamatsu Photonics's Functional Drug Screening System (FDSS). Increases in intracellular Ca^2+ concentration were readily detected upon activation with BzATP.
HEK293 cells stably expressing human P2X7 (GenBank accession number BC011913) carrying a C-terminal FLAG tag were grown in T225 flasks, in a 5% CO2 humidified incubator to about 80% confluence. Media composition consisted of Dulbecco's Modified Eagle Medium (high glucose), 10% fetal bovine serum ([…]), 100 units/[…] Penicillin, 100 microg/mL Streptomycin and 250 microg/mL Geneticine.
1. Plate-out HEK293-human P2X7 cells (40 microL medium containing 10,000 cells per well) into poly-D-lysine coated 384-well plates (Corning) at 24 h prior to assay.
2. Incubate at 37° C. in 5% CO2.
3. Incubate the plate at 37° C. in 5% CO2 for 1 h.
5. Test compounds were prepared at 100× the test concentration in DMSO by serial dilution with Biomek-FX liquid handling instrument. 33× diluted compound solutions in assay buffer were prepared in intermediate compound plate with Biomek-NX liquid handling instrument. A further 3× dilution occurred in below steps 6 and 7.
6. Add 20 microL of 33× diluted compound solutions into each well and leave the plate for 10 min under the dark at room temperature.
7. Measure activity by FDSS as follows: • Set the assay plate on the stacker of FDSS. • Start the detection of fluorescence intensity at 540 nm by 480 nm exicitation. • After 30 seconds, add 20 microL of assay buffer containing 240 microM BzATP (final concentration 80 microM).
IC50 values for compounds of the present invention were determined from 7-point dose-response studies. Curves were generated using the average of duplicate wells for each data point. Finally, the IC50 values are calculated with the best-fit dose curve determined by XLfit (ID Business Solutions Ltd.).

Chain of human P2X7 (Q99572 whole entry): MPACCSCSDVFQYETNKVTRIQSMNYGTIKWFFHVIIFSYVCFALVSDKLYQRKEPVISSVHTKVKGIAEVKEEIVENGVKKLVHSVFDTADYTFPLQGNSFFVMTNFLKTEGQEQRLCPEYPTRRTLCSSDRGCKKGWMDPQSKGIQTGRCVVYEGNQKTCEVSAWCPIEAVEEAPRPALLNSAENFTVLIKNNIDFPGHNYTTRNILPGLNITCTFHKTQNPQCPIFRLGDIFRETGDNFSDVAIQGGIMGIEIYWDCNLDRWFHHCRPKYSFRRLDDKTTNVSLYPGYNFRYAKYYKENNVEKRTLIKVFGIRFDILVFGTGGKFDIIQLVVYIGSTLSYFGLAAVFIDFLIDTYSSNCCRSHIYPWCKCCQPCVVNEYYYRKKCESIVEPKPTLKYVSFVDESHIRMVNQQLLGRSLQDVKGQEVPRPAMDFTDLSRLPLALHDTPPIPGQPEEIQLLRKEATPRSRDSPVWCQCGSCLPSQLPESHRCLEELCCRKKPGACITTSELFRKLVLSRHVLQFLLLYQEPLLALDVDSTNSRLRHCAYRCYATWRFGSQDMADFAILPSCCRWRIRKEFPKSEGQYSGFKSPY

Compound	IC50
Cc1cc(Cl)cc(Cl)c1CNC(=O)C1CC[C@H](O)c2ncccc21 (stereo partly drawn) [Example 64, (5R,8S)-N-(2,4-dichloro-6-methylbenzyl)-8-hydrdroxy-5,6,7,8-tetra-hydroxyquinoline-5-carboxamide]	< 0.05 µM
O=C(NCc1c(F)cc(F)cc1F)[C@@H]1CC[C@H](O)c2ncccc21 [Example 73, (5R,8S)-8-hydroxy-N-(2,4,6-trifluorobenzyl)-5,6,7,8-tetrahydroquinoline-5-carboxamide]	0.101 to 0.3 µM
O=C(NCc1ccc(F)c(F)c1F)[C@@H]1CC[C@@H](O)c2ncccc21 [Example 93, (5R,8R)-8-hydroxy-N-(2,3,4-trifluorobenzyl)-5,6,7,8-tetrahydroquinoline-5-carboxamide]	1 to 3 µM
O=C(NCc1ccc(F)c(F)c1)[C@]1(F)CC[C@H](O)c2ncccc21 [Example 202, (5S,8S)-N-(3,4-difluorobenzyl)-5-fluoro-8-hydroxy-5,6,7,8-tetrahydroquinoline-5-carboxamide]	0.05 to 0.1 µM
O=C1CC(C(=O)NCc2cccc(C(F)(F)F)c2Cl)c2cccnc21 (stereo not shown) [Example 17, N-(2-chloro-3-(trifluoromethyl)benzyl)-7-oxo-6,7-dihydro-5H-cyclopenta[b] pyridine-5-carboxamide]	0.05 to 0.1 µM
C[C@H](NC(=O)[C@]1(F)CC[C@](C)(O)c2ncccc21)c1ccc(F)cc1Cl [Example 271, (5S,8S)-N-((S)-1-(2-chloro-4-fluorophenyl)ethyl)-5-fluoro-8-hydroxy-8-methyl-5,6,7,8-tetrahydroquinoline-5-carboxamide]	0.301 to 1 µM
O=C(NCc1cc(F)ccc1Cl)[C@]1(F)CC[C@H](O)c2ncccc21 [Example 204, (5S,8S)-N-(2-chloro-5-fluorobenzyl)-5-fluoro-8-hydroxy-5,6,7,8-tetrahydroquinoline-5-carboxamide]	0.05 to 0.1 µM
O=C(N[C@H]1CCc2ccccc21)[C@]1(F)CC[C@H](O)c2ncccc21 [Example 226, (5S,8S)-N-((S)-2,3-dihydro-1H-inden-1-yl)-5-fluoro-8-hydroxy-5,6,7,8-tetrahydroquinoline-5-carboxamide]	1 to 3 µM
Cc1ccc(CNC(=O)[C@]2(F)CC[C@@H](O)c3ncccc32)c(Cl)c1 [Example 125, (5S,8R)-N-(2-chloro-4-methylbenzyl)-5-fluoro-8-hydroxy-5,6,7,8-hydroquinoline-5-carboxamide]	0.101 to 0.3 µM
O=C1CC[C@@](F)(C(=O)NCc2ncc(Cl)cc2Cl)c2cccnc21 [Example 255, (S)-N-((3,5-dichloro-pyridin-2-yl)methyl)-5-fluoro-8-oxo-5,6,7,8-tetrahydroquinoline-5-carboxamide]	0.101 to 0.3 µM
O=C(NCc1cc(F)c(F)c(F)c1)[C@]1(F)CC[C@H](O)c2ncccc21 [Example 200, (5S,8S)-5-fluoro-8-hydroxy-N-(3,4,5-trifluorobenzyl)-5,6,7,8-tetrahydroquinoline-5-carboxamide]	0.05 to 0.1 µM
O=C(NCc1c(Cl)cc(C(F)(F)F)cc1Cl)[C@@]1(F)CC[C@@H](O)c2ncccc21 [Example 147, (5R,8R)-N-(2,6-dichloro-4-(trifluoromethyl)benzyl)-5-fluoro-8-hydroxy-5,6,7,8-tetrahydroquinoline-5-carboxamide]	< 0.05 µM
O=C(NCC1(c2ccc(Cl)cc2Cl)CCOCC1)[C@]1(F)CC[C@@](O)(CO)c2ncccc21 [Example 332, (5S,8S)-N-((4-(2,4-dichlorophenyl)tetrahydro-2H-pyran-4-yl)methyl)-5-fluoro-8-hydroxy-8-(hydroxymethyl)-5,6,7,8-tetrahydroquinoline-5-carboxamide]	1 to 3 µM
O=C(NCC(c1ccccc1)N1CCOCC1)[C@]1(F)CC[C@H](O)c2ncccc21 (mixture of isomers) [Example 235, (5S,8S)-5-fluoro-8-hydroxy-N-((rac)-2-morpholino-2-phenylethyl)-5,6,7,8-tetrahydroquinoline-5-carboxamide]	1 to 3 µM
O=C(NCc1c(F)cccc1F)[C@]1(F)CC[C@H](O)c2ncccc21 [Example 217, (5S,8S)-N-(2,6-difluorobenzyl)-5-fluoro-8-hydroxy-5,6,7,8-tetrahydroquinoline-5-carboxamide]	0.101 to 0.3 µM
O=C(NCc1ccc(Cl)c(Cl)c1)[C@]1(F)CC[C@H](O)c2ncccc21 [Example 197, (5S,8S)-N-(3,4-dichlorobenzyl)-5-fluoro-8-hydroxy-5,6,7,8-tetrahydroquinoline-5-carboxamide]	< 0.05 µM

Compound	IC50
Cc1cnc2c(c1)[C@](F)(C(=O)NCc1ccc(Cl)cc1Cl)CC[C@@H]2O [Example 243, (5S,8S)-N-(2,4-dichlorobenzyl)-5-fluoro-8-hydroxy-3-methyl-5,6,7,8-tetrahydroquinoline-5-carboxamide]	0.301 to 1 µM
O=C(NC1CC1c1ccc(Cl)cc1Cl)[C@]1(F)CC[C@@](O)(CO)c2ncccc21 (stereo partly drawn) [Example 331, (5S,8S)-N-((trans)-2-(2,4-dichlorophenyl)cyclopropyl)-5-fluoro-8-hydroxy-8-(hydroxymethyl)-5,6,7,8-tetrahydroquinoline-5-carboxamide]	0.05 to 0.1 µM
CC(C)(C)CCNC(=O)[C@]1(F)CC[C@H](O)c2ncccc21 [Example 227, (5S,8S)-N-(3,3-dimethylbutyl)-5-fluoro-8-hydroxy-5,6,7,8-tetrahydroquinoline-5-carboxamide]	1 to 3 µM
O=C(NCc1cc(Cl)ccc1Cl)[C@]1(F)CC[C@H](O)c2ncccc21 [Example 173, (5S,8S)-N-(2,5-dichlorobenzyl)-5-fluoro-8-hydroxy-5,6,7,8-tetrahydroquinoline-5-carboxamide]	0.05 to 0.1 µM
COc1cccc(CNC(=O)[C@]2(F)CC[C@H](O)c3ncccc32)c1Cl [Example 224, (5S,8S)-N-(2-chloro-3-methoxybenzyl)-5-fluoro-8-hydroxy-5,6,7,8-tetrahydroquinoline-5-carboxamide]	0.301 to 1 µM
C[C@@H](NC(=O)[C@]1(F)CC[C@@H](O)c2ncccc21)c1ccc(Cl)cc1Cl [Example 119, (5S-8R)-N-((R)-1-(2,4-dichlorophenyl)ethyl)-5-fluoro-8-hydroxy-5,6,7,8-tetrahydroquinoline-5-carboxamide]	< 0.05 µM
O=C(NCc1c(F)cc(Cl)cc1Cl)[C@H]1CC[C@H](O)c2ncccc21 [Example 69, (5S,8S)-N-(2,4-dichloro-6-fluorobenzyl)-8-hy-droxy-5,6,7,8-tetrahydro-quinoline-5-carboxamide]	0.301 to 1 µM
O=C(NCc1cc(F)c(F)cc1Cl)[C@@]1(F)CC[C@@H](O)c2ncccc21 [Example 162, (5R,8R)-N-(2-chloro-4,5-difluorobenzyl)-5-fluoro-8-hydroxy-5,6,7,8-tetrahydroquinoline-5-carboxamide]	0.101 to 0.3 µM
O=C(NCc1ccc(F)cc1F)[C@@]1(F)CC[C@@H](O)c2ncccc21 [Example 140, (5R,8R)-N-(2,4-difluorobenzyl)-5-fluoro-8-hydroxy-5,6,7,8-tetrahydroquinoline-5-carboxamide]	0.301 to 1 µM
O=C(NCCOc1ccccc1)[C@]1(F)CC[C@H](O)c2ncccc21 [Example 228, (5S,8S)-5-fluoro-8-hydroxy-N-(2-phenoxyethyl)-5,6,7,8-tetrahydroquinoline-5-carboxamide]	1 to 3 µM
O=C(NCc1ncc(C(F)(F)F)cc1Cl)[C@]1(F)CC[C@H](O)c2ncccc21 [Example 194, (5S,8S)-N-((3-chloro-5-(trifluoromethyl)pyridin-2-yl)methyl)-5-fluoro-8-hydroxy-5,6,7,8-tetrahydroquinoline-5-carboxamide]	< 0.05 µM
O=C(NCc1c(Cl)ccc(Cl)c1Cl)[C@]1(F)CC[C@@H](O)c2ncccc21 [Example 124, (5S,8R)-5-fluoro-8-hydroxy-N-(2,3,6-trichlorobenzyl)-5,6,7,8,- tetrahydroquinoline-5-carboxamide]	0.101 to 0.3 µM
O=C(N[C@H]1C[C@@H]1c1ccccc1)[C@]1(F)CC[C@H](O)c2ncccc21 [Example 215, (5S,8S)-5-fluoro-8-hydroxy-N-((1S,2R)-2-phenylcyclopropyl)-5,6,7,8-tetrahydroquinoline-5-carboxamide]	0.101 to 0.3 µM
O=C(NCc1ccc(Cl)cc1F)[C@@]1(F)CC[C@@H](O)c2ncccc21 [Example 145, (5R,8R)-N-(4-chloro-2-fluorobenzyl)-5-fluoro-8-hydroxy-5,6,7,8-tetrahydroquinoline-5-carboxamide]	0.101 to 0.3 µM
Cc1ncsc1C(CNC(=O)[C@]1(F)CC[C@H](O)c2ncccc21)N1CCC(F)(F)CC1 (stereo partly drawn) [Example 236, (5S,8S)-N-(2-(4,4-difluoropiperidin-1-yl)-2-(4-methylthiazol-5-yl)ethyl)-5-fluoro-8-hydroxy-5,6,7,8-tetrahydroquinoline-5-carboxamide]	1 to 3 µM
